Measurements taken from PubChem BioAssay AID2060486 (Molecular Pharmacology Branch, DTP, NCI, 2025).

System: IGROV1 complex spheroids (HUVEC, MSC), viability % test/control
Assay: Anticancer human tumor IGROV1 cell line growth inhibition [GQUAD];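 also: spheroids exposed to compounds for 7 days before readout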;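 as to viability, T/C: 100% = DMSO vehicle control viability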
Settings: for IC50: curve of first compound; for viability, T/C: stronger effect = lower value; active = viability on the fitted dose curve at most 10% of control; inactive = the rest
How it was run: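 Viability of tumor cells grown as complex spheroids with endothelial and stromal cells, exposed to drug combinations. Top concentration at or near clinical Cmax (else 10 microM), diluted in half-log increments.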

[1] = second compound 0.0316 µM, first compound 0.000999 µM
[2] = second compound 0.0316 µM, first compound 0.00316 µM
[3] = second compound 0.0316 µM, first compound 0.00999 µM
[4] = second compound 0.0316 µM, first compound 0.0316 µM
[5] = second compound 0.0316 µM, first compound 0.0999 µM
[6] = second compound 0.0316 µM, first compound 0.316 µM
[7] = second compound 0.1 µM, first compound 0.000999 µM
[8] = second compound 0.1 µM, first compound 0.00316 µM
[9] = second compound 0.1 µM, first compound 0.00999 µM
[10] = second compound 0.1 µM, first compound 0.0316 µM
[11] = second compound 0.1 µM, first compound 0.0999 µM
[12] = second compound 0.1 µM, first compound 0.316 µM
[13] = second compound 0.316 µM, first compound 0.000999 µM
[14] = second compound 0.316 µM, first compound 0.00316 µM
[15] = second compound 0.316 µM, first compound 0.00999 µM
[16] = second compound 0.316 µM, first compound 0.0316 µM
[17] = second compound 0.316 µM, first compound 0.0999 µM
[18] = second compound 0.316 µM, first compound 0.316 µM
[19] = second compound 1 µM, first compound 0.000999 µM
[20] = second compound 1 µM, first compound 0.00316 µM
[21] = second compound 1 µM, first compound 0.00999 µM
[22] = second compound 1 µM, first compound 0.0316 µM
[23] = second compound 1 µM, first compound 0.0999 µM
[24] = second compound 1 µM, first compound 0.316 µM
[25] = second compound 3.16 µM, first compound 0.000999 µM
[26] = second compound 3.16 µM, first compound 0.00316 µM
[27] = second compound 3.16 µM, first compound 0.00999 µM
[28] = second compound 3.16 µM, first compound 0.0316 µM
[29] = second compound 3.16 µM, first compound 0.0999 µM
[30] = second compound 3.16 µM, first compound 0.316 µM
[31] = second compound 10 µM, first compound 0.000999 µM
[32] = second compound 10 µM, first compound 0.00316 µM
[33] = second compound 10 µM, first compound 0.00999 µM
[34] = second compound 10 µM, first compound 0.0316 µM
[35] = second compound 10 µM, first compound 0.0999 µM
[36] = second compound 10 µM, first compound 0.316 µM

CCc1c2c(nc3ccc(O)cc13)-c1cc3c(c(=O)n1C2)COC(=O)[C@]3(O)CC + Cc1[nH]c2ccc(F)cc2c1-c1nc2c3cccnc3c3ncccc3c2[nH]1
< 0.999 nM: IC50 (second compound 0.316 µM) | IC50 (second compound 1 µM) | IC50 (second compound 3.16 µM) | IC50 (second compound 10 µM)
inactive: viability, T/C [1] 57.7% | viability, T/C [2] 15.4% | viability, T/C [7] 58% | viability, T/C [8] 12.6% | viability, T/C [13] 36% | viability, T/C [14] 18.3% | viability, T/C [15] 10.3%
1.23 nM: IC50 (second compound 0.0316 µM)
active: viability, T/C [3] 10.2% | viability, T/C [4] 6.35% | viability, T/C [5] 4.8% | viability, T/C [6] 1.3% | viability, T/C [9] 10.4% | viability, T/C [10] 6.87% | viability, T/C [11] 4.33% | viability, T/C [12] 1.74% | viability, T/C [16] 7.63% | viability, T/C [17] 4.58% | viability, T/C [18] 1.81% | viability, T/C [19] 4.92% | viability, T/C [20] 3.7% | viability, T/C [21] 3.69% | viability, T/C [22] 2.84% | viability, T/C [23] 2.04% | viability, T/C [24] 0.8% | viability, T/C [25] 4.87% | viability, T/C [26] 4.58% | viability, T/C [27] 3.82% | viability, T/C [28] 3.33% | viability, T/C [29] 1.4% | viability, T/C [30] 0.62% | viability, T/C [31] 4.11% | viability, T/C [32] 3.78% | viability, T/C [33] 4.08% | viability, T/C [34] 3.15% | viability, T/C [35] 1.92% | viability, T/C [36] 0.73%
1.22 nM: IC50 (second compound 0.1 µM)

CC[C@@]1(O)C(=O)OCc2c1cc1n(c2=O)Cc2cc3c(CN(C)C)c(O)ccc3nc2-1 + Cc1[nH]c2ccc(F)cc2c1-c1nc2c3cccnc3c3ncccc3c2[nH]1
9.14 nM: IC50 (second compound 0.316 µM)
26.3 nM: IC50 (second compound 0.0316 µM)
active: viability, T/C [18] 10.2% | viability, T/C [19] 4.53% | viability, T/C [20] 5.2% | viability, T/C [21] 3.92% | viability, T/C [22] 4.65% | viability, T/C [23] 5.01% | viability, T/C [24] 4.15% | viability, T/C [25] 4.32% | viability, T/C [26] 4.59% | viability, T/C [27] 4.67% | viability, T/C [28] 4.52% | viability, T/C [29] 4.31% | viability, T/C [30] 2.77% | viability, T/C [31] 4.73% | viability, T/C [32] 3.46% | viability, T/C [33] 4.25% | viability, T/C [34] 4.75% | viability, T/C [35] 4.66% | viability, T/C [36] 3.29%
23.1 nM: IC50 (second compound 0.1 µM)
inactive: viability, T/C [1] 99.8% | viability, T/C [2] 73.2% | viability, T/C [3] 92.3% | viability, T/C [4] 42.7% | viability, T/C [5] 10.9% | viability, T/C [6] 10.8% | viability, T/C [7] 96.9% | viability, T/C [8] 77.7% | viability, T/C [9] 94.9% | viability, T/C [10] 35% | viability, T/C [11] 10.7% | viability, T/C [12] 11.1% | viability, T/C [13] 93.1% | viability, T/C [14] 58.5% | viability, T/C [15] 56.9% | viability, T/C [16] 34.6% | viability, T/C [17] 9.45%
< 0.999 nM: IC50 (second compound 1 µM) | IC50 (second compound 3.16 µM) | IC50 (second compound 10 µM)
